The values below come from patent US20020198221A1, “N-methyl-N-(3-{3-[2-thienylcarbonyl]-pyrazol-[1,5-alpha]-pyrimidin-7-yl}phenyl)acetamide and compositions and, methods related thereto” (priority 1999, published 2002).

A word on the IC50: it is the point on the concentration scale where inhibition reaches its midpoint.

Each structure is given as a SMILES string. “Also recorded” adds a separate entry of the source. A value given as a limit tells only on which side of the number the result lay.

Data set [1] concerns rats. The data set can be described thus: potentiation of ETOH delivered 24 hours after dosing (hangover liability). The conditions noted are these: for Hangover Liability Index: ETOH 24 hours after administration; for potentiation of ETOH delivered 24 hours after drug treatment: rat, in vivo. Type of data set: in vivo, rat. The method, then:
The important observation that Compound 1 causes very little potentiation of ETOH was extended by determining a Hangover Liability Index, the measure of the ability of the drug to potentiate ETOH 24 hours after administration (see Table 3 below). Sedative-hypnotic agents have been reported to produce drowsiness, confusion and other side effects in man on the day following the normal overnight use of these compounds.

Data set [2] concerns rats. The data set can be described thus: potentiation of ETOH-induced loss of righting response, ETOH 60 minutes after dosing. The class given is in vivo, rat. Conditions: for ETOH Liability Index: ratio ED50 motor activity / MED ETOH potentiation; for Minimum Effective Dose (MED mg/kg) to potentiate ETOH-induced loss of righting response: rats, ETOH 3.2 g/kg i.p. 60 minutes after dosing. The text has this:
Benzodiazepines and barbiturate sedative-hypnotics produce a profound potentiation of the deleterious effects of ethanol (ETOH) in man and animals (Ayd, supra). Intraperitoneal ETOH alone, when administered to rats at a dose of 3.2 g/kg, produces a reliable loss of righting response. The loss of righting response caused by ETOH can be used to measure the possible interaction of ETOH with test drugs. This is done by delivering the ETOH and a test drug sequentially, and determining the Minimum Effective Dose of test drug which will potentiate the time that ETOH produces the loss of righting response. The ETOH Liability Index for a drug can be determined by calculating the ratio of (1) the ED50 of the test drug to decrease motor activity (a measure of sedation) to (2) the Minimum Effective Dose (MED) of the test drug to potentiate the time for ETOH-induced loss of righting response.
ETOH Liability Indices were determined experimentally for Compound 1, flurazepam and triazolam by intraperitoneally delivering ETOH (3.2 g/kg) to the animals 60 minutes after dosing with each test drug (see Table 2 below).

The test system of data set [3] is GABAA receptor. Kind of data set: [35S]TBPS binding to rat cortex membranes. An excerpt: TBPS binds to a site on the GABAA receptor which is closely associated with the chloride channel, and an increase in TBPS binding correlates with increased activation of the chloride conductance (i.e., enhanced GABAA receptor function). Compounds which act as agonists at the benzodiazepine site increase TBPS binding to varying degrees, which reflects their relative efficacies.

Data set [4] has as its system rats. Kind of data set: motor activity in rats (activity meter). The class given is in vivo, rat. The conditions noted are these: for ED50: Rattus norvegicus. As to the method:
(§1) The sedative effects of Compound 1 were measured in rats using a panel of standard tests which monitor the effects of drugs on motor activity, muscle relaxation and motor coordination.
(§2) This latter compound is well characterized as a competitive antagonist at the benzodiazepine site, which can reverse the effects of benzodiazepine site agonists.
(§3) Administration of benzodiazopines to animals and to man for periods of several weeks can result in a tolerance to their sedative effects (Finkle, supra). In order to assess tolerance to Compound 1, its effects were tested on rat motor activity, and on grip strength using the inclined screen procedures after single and repeated administrations. The results of these studies were then compared to results gathered from rats which had received similar dosings of triazolam.

Data set [5] concerns rats. The data set can be described thus: one-trial passive avoidance test (amnesia). Type of data set: in vivo, rat. Conditions: for Amnestic Liability Index: ratio ED50 decreased motor activity / MED to produce amnesia. The method, then: This effect can be studied in rats by the one-trial passive avoidance test. In this test an undrugged, naive rat is given an electric shock when it moves from the illuminated side to the darkened side of a two-compartment chamber. When tested for recall of this training 24 hours later, a placebo-injected animal will show excellent recall of the aversive training, and thus a high latency time for entering the darkened side.

The subject of data set [6] is squirrel monkeys. Kind of data set: EEG studies in squirrel monkeys. The class given is in vivo, squirrel monkey. Conditions: 4.0 mg/kg i.m. As to the method: (§4) Compound 1 produced dose-related increases in sleep duration in rats, with a minimum effective dose of 2.0 mg/kg.
Data set [7] relates to rats. Kind of data set: panel of standard tests for sedative effects in rats (motor activity, muscle relaxation, motor coordination). The class given is in vivo, rat. As to the method:
as §1

In data set [8] the test system is rats. The data set can be described thus: rod walking test. Type of data set: in vivo. Conditions: Rattus norvegicus, oral. The method, then:
as §1

Data set [9] concerns rats. The data set can be described thus: inclined screen grip strength test. Type of data set: in vivo, rat. The conditions noted are these: for ED50: Rattus norvegicus. As to the method:
as §1, §2, §3

Data set [10] concerns rats. The data set can be described thus: Thirsty Rat Conflict Procedure. Type of data set: in vivo. As to the method:
The Thirsty Rat Conflict Procedure involves rats which are deprived of water for 48 hours. They are then given brief electrical shocks following each 20th lick of a drinking tube. These shocks create a “conflict situation” which results in a marked decrease in licking (drinking) behavior.

Data set [11] has as its system rats. The data set can be described thus: sleep duration in rats. The class given is in vivo, rat. As to the method: as §4
Data set [12] deals with squirrel monkeys. Kind of data set: Squirrel Monkey Conflict Procedure. Type of data set: in vivo. The method, then: The Squirrel Monkey Conflict Procedure involves monkeys which are initially trained to press a bar to receive a food reward. In later sessions the animals were given occasional electrical shocks following randomly selected bar presses. These animals responded to the conflict situation by substantially lowering their levels of bar-pressing activity. […] This increase in conflict response reflects the anxiolytic effects of the drug. The increase drops off at 4.0 mg/kg, which may be due to a subtle sedative effect of the compound which begins developing in this dose range. The inverted-U shaped dose-response function described above for Compound 1 is consistent with the profile of other sedative-hypnotic drugs of the benzodiazepine-ligand class, and reflects the sedative properties of these drugs (Cook and Sepinwall, supra).

Data set [13] deals with benzodiazepine site on the GABAA receptor. Kind of data set: [3H]flunitrazepam binding to rat cortex. The conditions noted are these: for IC50: rat cortex, read-out: IC50, displacement of [3H]flunitrazepam binding. For orientation: Loss of bound radioactivity is the signal in a displacement assay; it reports binding, not function.
Data set [14] relates to squirrel monkeys. The data set can be described thus: vigilance test (reaction time) in squirrel monkeys. Type of data set: in vivo, squirrel monkey. Conditions: >1 mg/kg orally one hour before testing. The text has this: Vigilance tests based on reaction time measurements in monkeys measure drug induced slowing of responses and decreases in attentional or cognitive processes. Squirrel monkeys were trained to respond to a visual trigger by bar pressing for a food reward.

Data set [15] has as its system rats. The data set can be described thus: prevention of electrical shock induced convulsions. The conditions noted are these: Rattus norvegicus; oral; 150 mA, 60 Hz transcorneal shock for 0.3 seconds; read-out: ED50 blocking electrical shock induced convulsions. Type of data set: in vivo.
Data set [16] deals with rats. Kind of data set: prevention of chemically induced convulsions in rats. The class given is in vivo, rat. The conditions noted are these: for ED50: Rattus norvegicus. An excerpt: Benzodiazepine sedative-hypnotic agents are potent anticonvulsants in animals, and are used clinically for the treatment of status epilepticus. Oral doses of Compound 1 were effective in blocking convulsions in rats which resulted from injections of agents know to induce convulsion (see Table 1 below).

The target in data set [17] is benzodiazepine site on the GABAA receptor. Kind of data set: [3H]flunitrazepam binding to rat cerebellum membranes. The conditions noted are these: read-out: IC50, inhibition of [3H]flunitrazepam binding.
The mark [18] stands for this setting: Table 2, read-out: Decrease in Motor Activity (ED50 mg/kg).
Where [19] appears, read: 3.1 mg/kg Compound 1 p.o. + 10 mg/kg Ro 15-1788 i.p.
Setting [20] is: inclined screen, fourth day of daily dosing, read-out: ED50 grip strength, tolerance study.
[21] abbreviates: inclined screen, single administration, read-out: ED50 grip strength, tolerance study.
The mark [22] stands for this setting: fourth day of daily dosing, read-out: ED50 motor activity, tolerance study.
The mark [23] stands for this setting: single administration, read-out: ED50 motor activity, tolerance study.

On to `CCN(CC)CCN1C(=O)CN=C(c2ccccc2F)c2cc(Cl)ccc21` [flurazepam], for which, in data set [1], the “Hangover Liability Index” value stood at 2.5 and the “potentiation of ETOH delivered 24 hours after drug treatment” value (“potentiation of ETOH delivered 24 hours” for short) is reported as “significantly potentiated”. Moreover, in data set [2], the “ETOH Liability Index” value was 4.98 and the “Minimum Effective Dose (MED mg/kg) to potentiate ETOH-induced loss of righting response” value is 5.0 mg/kg. Also, in [3], the “Emax, maximum enhancement of TBPS binding” value (from here on “Emax, maximum enhancement”) turned out to be 71%. Also, in data set [4] (setting [18]), the ED50 was found to be 24.9 mg/kg. The “Amnestic Liability Index” value in data set [5] is recorded as 3.1.
On to `CC(=O)N(C)c1cccc(-c2ccnc3c(C(=O)c4cccs4)cnn23)c1` [Compound 1, N-methyl-N-(3-{3-[2-thienylcarbonyl]-pyrazol-[1,5-α]-pyrimidin-7-yl}phenyl)acetamide], for which the “changes in EEG power spectrum” value in data set [6] was “a relative decrease in alpha activity and an increase in beta activity”. Also, the “sedative potency relative to reference drugs” value in data set [7] is “approximately equipotent with triazolam and more potent than zolpidem and flurazepam”. Besides, the ED50 in data set [8] amounted to 3 mg/kg; in data set [9] (setting [20]), 18.3 mg/kg; in data set [9] (setting [21]), 2.6 mg/kg; in data set [9] (po, inclined screen grip strength test, read-out: ED50 for muscle relaxant effects), 2.7 mg/kg; in data set [4] (setting [18]), 1.2 mg/kg; in [4] (setting [22]), 14.5 mg/kg. The ED50 in data set [4] (po, activity meter, read-out: ED50 for decrease in motor activity) is 1.2 mg/kg; in data set [4] (setting [23]), 2.4 mg/kg; in data set [15] it was 5.5 mg/kg; in [16] (rats, oral, inducer Bicuculline (iv), read-out: ED50 preventing convulsion), 2.3 mg/kg; in data set [16] (rats, oral, inducer Pentylenetetrazol (iv), read-out: ED50 preventing convulsion), 2.5 mg/kg; in [16] (read-out: ED50 preventing convulsion, rats, oral, inducer Picrotoxin (sc)), 1.9 mg/kg. Further, the ED50 in data set [16] (read-out: ED50 preventing convulsion, rats, oral, inducer Strychnine (sc)) came out at 4.4 mg/kg. Moreover, in data set [1], the “Hangover Liability Index” value is 0.0. In data set [1], the “potentiation of ETOH delivered 24 hours” value is listed as “failed to potentiate ETOH”. The “effect on grip strength (inclined screen) with Ro 15-1788 co-treatment” value in data set [9] (setting [19]) was “reverse the impairment of grip strength; also recorded: reversed”. The “increase in number of shocks accepted vs vehicle control” value in [10] (oral 0.3 mg/kg) was 100%. Besides, in data set [11], the “minimum effective dose for increase in sleep duration” value is 2.0 mg/kg. In addition, in [2] (rat, in vivo, oral, 60 min), the “times less ETOH liability compared to triazolam and flurazepam” value is listed as at least 10 times. Further, the “ETOH Liability Index” value in data set [2] turned out to be 0.48. For the same molecule, the “Minimum Effective Dose (MED mg/kg) to potentiate ETOH-induced loss of righting response” value in data set [2] was 2.5 mg/kg. Also, the “increase in conflict response” value in data set [12] (4.0 mg/kg) is “drops off”. For the same molecule, the “increase above baseline responses to conflict situation” value in data set [12] (oral 2.0 mg/kg) is on record as 100%. The IC50 in data set [13] was found to be 9.8 nM; in data set [17], 2 nM. In addition, the “Emax, maximum enhancement” value in [3] is listed as 65%. Further, the “effect on motor/locomotor activity with Ro 15-1788 co-treatment” value in [4] (setting [19]) is “antagonize the decreases in motor activity; also recorded: reversed”. The “effect on accuracy and latency of responses” value in data set [14] was “dose related decrements in both the accuracy and latency of the responses”. In data set [16] (all five methods (four chemical inducers and electrical shock)), the “anticonvulsant potency relative to reference drugs” value was “less than that of triazolam and greater than that of flurazepam”. In data set [5] (rat, in vivo), the amnestic effect entry is listed as “small amnestic effect compared to triazolam or flurazepam”. In data set [5], the “Amnestic Liability Index” value was found to be 0.15.
Turning to `Cc1nnc2n1-c1ccc(Cl)cc1C(c1ccccc1Cl)=NC2` [triazolam, reference compound], the “Hangover Liability Index” value in data set [1] worked out at 10. For the same molecule, the “potentiation of ETOH delivered 24 hours” value in data set [1] was “significantly potentiated”. Besides, the ED50 is above 100 mg/kg in data set [9] (setting [20]); 5.1 mg/kg in [9] (setting [21]); 1.6 mg/kg in data set [4] (setting [18]); above 100 mg/kg in data set [4] (setting [22]); 3.9 mg/kg in [4] (setting [23]). Also, in [2], the “ETOH Liability Index” value is on record as 20. Further, the “Minimum Effective Dose (MED mg/kg) to potentiate ETOH-induced loss of righting response” value in data set [2] is on record as “.08 mg/kg”. Also, the IC50 in data set [13] worked out at 0.5 nM. Moreover, in data set [3], the “Emax, maximum enhancement” value was found to be 78%. Further, the “Amnestic Liability Index” value in data set [5] is listed as 1.6.
Take `CC(=O)Nc1cccc(-c2ccnc3c(C(=O)c4cccs4)cnn23)c1` [desmethyl metabolite of Compound 1]: the “sedative effects in the test panel” value in data set [7] (motor activity, inclined screen, rod walking) is on record as “did not show sedative effects”. Also, the “effect in thirsty rat conflict model” value in [10] (12 mg/kg) was “without effect”. Moreover, in [13], the “times less potent than Compound 1 in displacing radiolabeled flunitrazepam” value is “approximately 74 times” and the IC50 stood at 725 nM. The “Emax, maximum enhancement” value in [3] is given as 28%.
For the molecule `CN1C(=O)CN=C(c2ccccc2F)c2cc([N+](=O)[O-])ccc21` [flunitrazepam], in data set [13], the half-maximal inhibitory concentration (IC50) was 114 nM.
Turning to `CN1C(=O)CN=C(c2ccccc2)c2cc(Cl)ccc21` [diazepam], the IC50 in data set [13] is 17 nM. Moreover, in [3], the “Emax, maximum enhancement” value turned out to be 55%.
Turning to `Cc1ccc(-c2nc3ccc(C)cn3c2CC(=O)N(C)C)cc1` [zolpidem], the half-inhibitory concentration (IC50) in [13] is 26 nM.
